Assays:
[1] = biological target: T1, bovine serum albumin (BSA) (Bos taurus, UniProt P02769); assay: ANS fluorescence titrated with protein, MCR-ALS scores, one-site fit; assay type: binding; settings: read-out: K (converted)
T1 construct: gene ALB

lysozyme = biological target: T2, lysozyme (Gallus gallus, UniProt P00698); assay: as above; assay type: binding; settings: read-out: K (converted)
T2 construct: gene LYZ
T2 sequence (P00698 19-147): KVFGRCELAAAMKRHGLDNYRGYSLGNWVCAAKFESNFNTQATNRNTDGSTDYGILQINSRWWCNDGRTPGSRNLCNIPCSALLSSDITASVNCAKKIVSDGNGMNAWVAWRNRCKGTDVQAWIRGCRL

T1 sequence (P02769 25-607): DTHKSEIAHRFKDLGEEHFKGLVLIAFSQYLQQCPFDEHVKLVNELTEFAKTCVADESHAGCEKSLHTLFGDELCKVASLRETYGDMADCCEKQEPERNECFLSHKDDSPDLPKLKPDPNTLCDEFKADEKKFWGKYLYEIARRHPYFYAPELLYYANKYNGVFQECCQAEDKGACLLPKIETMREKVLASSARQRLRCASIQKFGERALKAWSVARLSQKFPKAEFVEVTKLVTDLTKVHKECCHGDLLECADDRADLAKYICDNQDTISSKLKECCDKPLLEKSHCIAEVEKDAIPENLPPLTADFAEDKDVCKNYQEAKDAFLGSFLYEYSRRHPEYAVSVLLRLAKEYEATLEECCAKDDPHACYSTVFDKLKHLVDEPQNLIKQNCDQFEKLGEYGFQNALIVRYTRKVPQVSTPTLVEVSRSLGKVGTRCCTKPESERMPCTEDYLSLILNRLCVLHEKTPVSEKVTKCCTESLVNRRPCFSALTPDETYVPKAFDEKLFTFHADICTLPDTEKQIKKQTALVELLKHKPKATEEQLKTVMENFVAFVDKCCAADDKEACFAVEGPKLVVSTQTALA

With `O=S(=O)(O)c1cccc2cccc(Nc3ccccc3)c12` [8-Anilino-1-naphthalenesulfonic acid] the Kd [1] was 1.06 µM and the Kd (lysozyme) was 172 µM.

— paper PMC7830758, “Revisiting the Rate-Limiting Step of the ANS–Protein Binding at the Protein Surface and Inside the Hydrophobic Cavity” (Molecules, 2021)
